Data: ChEMBL document CHEMBL5113447, “Synthesis of baicalein derivatives and evaluation of their antiviral activity against arboviruses” (Bioorg Med Chem Lett, 2022)

How the values were obtained:
Chikungunya virus [1] = assay: Antiviral activity against CHIKV infected in human Huh-7 cells assessed as inhibition of viral infection by measuring EGFP-positive cells measured 24 hrs post infection by fluorescent microscopic analysis; type: functional, organism-based; conditions: Huh-7, 24 h
West Nile virus [2] = assay: Antiviral activity against WNV infected in human Huh-7 cells assessed as inhibition of viral infection measured 24 hrs post infection by immunofluorescent assay; type: functional, organism-based; conditions: Huh-7, 24 h
Zika virus [3] = assay: Antiviral activity against ZIKV infected in human Huh-7 cells assessed as inhibition of viral infection measured 24 hrs post infection by immunofluorescent assay; type: functional, organism-based; conditions: Huh-7, 24 h
[4] = Cytotoxicity against human Huh-7 cells assessed as reduction in cell viability incubated for 24 hrs by CCK-8 assay; type: toxicity, cell-based
Chikungunya virus [5] = assay: Potency index, ratio of baicalein IC50 to test compound IC50 for antiviral activity against CHIKV infected in human Huh-7 cells assessed as inhibition of viral infection by measuring EGFP-positive cells measured 24 hrs post infection by fluorescent microscopic analysis; type: functional
West Nile virus [6] = assay: Potency index, ratio of baicalein IC50 to test compound IC50 for antiviral activity against WNV infected in human Huh-7 cells assessed as inhibition of viral infection measured 24 hrs post infection by immunofluorescent assay; type: functional
Zika virus [7] = assay: Potency index, ratio of baicalein IC50 to test compound IC50 for antiviral activity against ZIKV infected in human Huh-7 cells assessed as inhibition of viral infection measured 24 hrs post infection by immunofluorescent assay; type: functional
West Nile virus [8] = assay: Antiviral activity against WNV infected in human Huh-7 cells assessed as inhibition of viral infection at 20 uM measured 24 hrs post infection by immunofluorescent assay relative to control; type: functional
Zika virus [9] = assay: Antiviral activity against ZIKV infected in human Huh-7 cells assessed as inhibition of viral infection at 20 uM measured 24 hrs post infection by immunofluorescent assay relative to control; type: functional

Row | Structure (SMILES) | IC50 (Chikungunya virus [1]) [µM] | IC50 (West Nile virus [2]) [µM] | IC50 (Zika virus [3]) [µM] | CC50 at 24 h [4] [µM] | Ratio IC50 (Chikungunya virus [5]) | Ratio IC50 (West Nile virus [6]) | Ratio IC50 (Zika virus [7]) | inhibition at 20 µM (West Nile virus [8]) [%] | inhibition at 20 µM (Zika virus [9]) [%]
1 | O=c1cc(-c2ccc(N3CCN(c4cccc(Cl)c4)CC3)cc2)oc2cc(O)c(O)c(O)c12 | 4.3 | 5.1 | 5.7 | > 100 | – | – | – | – | –
2 | Oc1c(O)c(O)c2c(=S)cc(-c3ccccc3)oc2c1-c1ccc(C(F)(F)F)cc1 | 2.7 | 2.1 | 3.8 | > 100 | >5 | >6 | >5 | – | –
3 | O=c1cc(-c2ccccc2)oc2c(-c3ccc(OC(F)(F)F)cc3)c(O)c(O)c(O)c12 | 5.2 | 6.4 | 8.3 | > 100 | – | – | – | – | –
4 | Oc1cc2oc(-c3ccccc3)cc(=S)c2c(O)c1O | 7.6 | – | – | > 100 | – | – | – | < 50 | < 50
5 | Cc1ccc(-c2c(O)c(O)c(O)c3c(=O)cc(-c4ccccc4)oc23)cc1 | 7.9 | – | – | > 100 | – | – | – | < 50 | < 50
6 | O=c1cc(-c2ccccc2)oc2c(-c3ccc(F)cc3)c(O)c(O)c(O)c12 | 4.2 | 3.1 | 2.5 | > 100 | – | – | >5 | – | –
7 | O=c1cc(-c2ccc(Nc3ccc(F)cc3)cc2)oc2cc(O)c(O)c(O)c12 | 4.8 | 4.5 | 6.9 | > 100 | – | – | – | – | –
8 | O=c1cc(-c2ccccc2)oc2c(-c3ccccc3)c(O)c(O)c(O)c12 | 5.8 | 3.1 | 5.8 | 86.3 | – | – | – | – | –
9 | COc1c(OC)c(OC)c2c(=O)cc(-c3ccccc3)oc2c1-c1ccc(OC(F)(F)F)cc1 | 17.8 | – | – | > 100 | – | – | – | < 50 | < 50
10 | O=c1cc(-c2ccccc2)oc2c(-c3cccc(F)c3)c(O)c(O)c(O)c12 | 4.3 | 2.9 | 3.5 | > 100 | – | – | >5 | – | –
11 | COc1cc2oc(-c3ccc(Nc4ccc(F)cc4)cc3)cc(=O)c2c(OC)c1OC | 9.7 | – | – | 77.6 | – | – | – | < 50 | < 50
12 | O=c1cc(-c2ccccc2)oc2c(-c3cc(F)cc(F)c3)c(O)c(O)c(O)c12 | 8.6 | – | – | > 100 | – | – | – | < 50 | < 50
13 | Cc1cccc(-c2c(O)c(O)c(O)c3c(=O)cc(-c4ccccc4)oc23)c1 | 8.7 | – | – | > 100 | – | – | – | < 50 | < 50
14 | O=c1cc(-c2ccc(N3CCN(c4ccc(O)cc4)CC3)cc2)oc2cc(O)c(O)c(O)c12 | 5.9 | 6.6 | 6.9 | > 100 | – | – | – | – | –
15 | CN1CCN(c2ccc(-c3cc(=O)c4c(O)c(O)c(O)cc4o3)cc2)CC1 | 8.9 | – | – | > 100 | – | – | – | < 50 | < 50
16 | Oc1c(O)c(O)c2c(=S)cc(-c3ccccc3)oc2c1-c1ccc(F)cc1 | 4.7 | 6.2 | 7.7 | > 100 | – | – | – | – | –
17 | O=c1cc(-c2ccc(Nc3ccc(Br)cc3)cc2)oc2cc(O)c(O)c(O)c12 | 5.2 | 4.1 | 6.7 | > 100 | – | – | – | – | –
18 | COc1cc2oc(-c3ccccc3)cc(=S)c2c(OC)c1OC | 9.7 | – | – | > 100 | – | – | – | < 50 | < 50
19 | Oc1c(O)c(O)c2c(=S)cc(-c3ccccc3)oc2c1-c1cccc(F)c1 | 9.7 | – | – | > 100 | – | – | – | < 50 | < 50
20 | O=c1cc(-c2ccc(Nc3ccc(Cl)cc3)cc2)oc2cc(O)c(O)c(O)c12 | 3.4 | 2.4 | 1.9 | > 100 | >5 | >6 | >5 | – | –
21 | COc1cc2oc(-c3ccc(N4CCN(C)CC4)cc3)cc(=O)c2c(OC)c1OC | 11.5 | – | – | > 100 | – | – | – | < 50 | < 50
22 | O=c1cc(-c2ccccc2)oc2cc(O)c(O)c(O)c12 [BAICALEIN] | 16.9 | 14.5 | 19.6 | > 100 | – | – | – | – | –
